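A five-concentration, 48-hour dose response in 96-well plates underlies each endpoint, interpolated linearly between surrounding concentrations. GI50: concentration for 50% inhibition of growth.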 Active and inactive are the calls of the source. No stated cut-off is given here; in the data, active = GI50 up to about 1.1 µM and inactive = higher. Starred links: 1 amine or outer side, 2 acyl side, 3 side chain; linkers in the order of their positions; H or OH if unused. Non-standard residues stand in square brackets, D forms with d. Residues, ends and D or L forms follow the SMILES beside them. *: point of attachment. X47 = CCC(=O)CC1CC(C)CC(C(=O)[*:2])N1[*:1]; X46 = CCCCCCCCC(C)C(=O)*; Aib = CC(C)(N)C(=O)O; X48 = CC(CN(C)CCO)N*
Legend:
Assay in all cases: DTP human tumour cell line panel, 48 h
UACC-62 = system: UACC-62
ACHN = system: ACHN
KM12 = system: KM12
SK-OV-3 = system: SK-OV-3
TK-10 = system: TK-10
SNB-75 = system: SNB-75
SR = system: SR
OVCAR-4 = system: OVCAR-4
NCI-H460 = system: NCI-H460
SF-295 = system: SF-295
786-0 = system: 786-0
A498 = system: A498
NCI-H226 = system: NCI-H226
Malme-3M = system: Malme-3M
LOX IMVI = system: LOX IMVI
OVCAR-8 = system: OVCAR-8
NCI-H23 = system: NCI-H23
IGROV-1 = system: IGROV-1
K562 = system: K562
U-251 = system: U-251

| SMILES | GI50 (UACC-62) | GI50 (ACHN) | GI50 (KM12) | GI50 (SK-OV-3) | GI50 (TK-10) | GI50 (SNB-75) | GI50 (SR) | GI50 (OVCAR-4) | GI50 (NCI-H460) | GI50 (SF-295) | GI50 (786-0) | GI50 (A498) | GI50 (NCI-H226) | GI50 (Malme-3M) | GI50 (LOX IMVI) | GI50 (OVCAR-8) | GI50 (NCI-H23) | GI50 (IGROV-1) | GI50 (K562) | GI50 (U-251) |
| --- | --- | --- | --- | --- | --- | --- | --- | --- | --- | --- | --- | --- | --- | --- | --- | --- | --- | --- | --- | --- |
| CC(=O)OCCOCn1cnc2c(Cl)nc(Cl)nc21 | 16100 nM (inactive) | 16500 nM (inactive) | 18200 nM (inactive) | > 10000 nM (inactive) | 39400 nM (inactive) | 21500 nM (inactive) | 3870 nM (inactive) | 19100 nM (inactive) | 18500 nM (inactive) | > 10000 nM (inactive) | 21400 nM (inactive) | 32200 nM (inactive) | 19200 nM (inactive) | 15800 nM (inactive) | 4300 nM (inactive) | 20800 nM (inactive) | 18700 nM (inactive) | 14300 nM (inactive) | 2440 nM (inactive) | 15000 nM (inactive) |
| CCCCCCCCC(C)C(=O)N1CCCC1C(=O)N1C(CC(=O)CC)CC(C)CC1C(=O)NC(C)C(=O)NC(C)(C)C(=O)NC(C)(C)C(=O)NC(C(=O)NC(C)C(=O)NC(C)(C)C(=O)NC(C)(C)C(=O)NC(C)CN(C)CCO)C(C)CC (stereo not given) (X46-P[X47]A[Aib][Aib]IA[Aib][Aib]-X48; configuration not given here) | 1890 nM (inactive) | 36.8 nM (active) | 142 nM (active) | 1190 nM (inactive) | 90 nM (active) | 382 nM (active) | 29.4 nM (active) | < 11.8 nM (active) | 20.4 nM (active) | < 10 nM (active) | 106 nM (active) | 2000 nM (inactive) | 133 nM (active) | 1260 nM (inactive) | 355 nM (active) | < 10 nM (active) | < 10 nM (active) | 221 nM (active) | < 10 nM (active) | < 49.8 nM (active) |

Reference: ChEMBL document CHEMBL1201862, “PubChem BioAssay data set” (2004)
